Data: patent US8741911B2, “Raf inhibitor compounds” (Eli Lilly and Company, priority 2012, dated 2014)
pIC50: −log10 of the molar value.

Key:
A375 = assay: CellTiter-Glo proliferation and viability assay; type: cell-based; conditions: Homo sapiens, A-375, parental A375 B-Raf V600E cells, comparison with A375res
A375res cells = assay: CellTiter-Glo proliferation and viability assay in vemurafenib-resistant cells; type: cell-based, human

shift of IC50, A375res versus A375 (A375res cells): ~30 fold | pIC50 (A375res cells; Homo sapiens, A375res cells): < 5.15
Compound: CCCS(=O)(=O)Nc1ccc(F)c(C(=O)c2c[nH]c3ncc(-c4ccc(Cl)cc4)cc23)c1F [PLX4032, vemurafenib]
pIC50 (A375): 6.60
